Laboratory results: patent US20130217761A1 (Laboratorio Catarinense S/A, priority 2009, published 2013)

Columns and labels:
isolated rabbit heart [1] = experiment: reversal of sustained electrically induced ventricular fibrillation, isolated rabbit heart (Langendorff preparation); details: added to perfusate
Method: The thorax was rapidly opened by middle-sized incision, and the sternum beaten back for complete exposure of the inside of the thorax. […] A metallic cannula was then inserted and fixed to the proximal portion of the aorta, retrograde perfusion of oxygenated Krebs-Henseleit solution was initiated and heated up to 37° C. with constant flow of 13 mL/minute, kept by a continuous-infusion pump, Harvard Apparatus model RS232. The cannula tip was positioned quite close to the aortic valve to permit adequate coronary perfusion.
The heart was then removed and suspended through the cannula in a classic Langenhorff preparation. The Krebs Henseleit composition used was: 115 mM NaCl; 5.4 mM KCL; 1.25 mM CaCl2; 25 mM NaHCO3; 1.2 mM MgSO4; 1.5 mM NaH2PO4 and 11 nM glucose. […]

isolated rabbit heart [2] = experiment: re-induction of ventricular fibrillation after reversal (protective effect), isolated rabbit heart; details: new attempt to induce ventricular fibrillation 5 minutes after reversal
Method: In order to carry out the experiments, twenty-seven male and female white New Zealand rabbits, weighing 2.5-3.5 kg, received 100 Ul/kg of intravenous heparin and were killed by cervical displacement.
The thorax was rapidly opened by middle-sized incision, and the sternum beaten back for complete exposure of the inside of the thorax. The pericardium was removed and the rising part of the aorta was isolated and repaired with a cotton thread 3-0. A metallic cannula was then inserted and fixed to the proximal portion of the aorta, retrograde perfusion of oxygenated Krebs-Henseleit solution was initiated and heated up to 37° C. with constant flow of 13 mL/minute, kept by a continuous-infusion pump, Harvard Apparatus model RS232. The cannula tip was positioned quite close to the aortic valve to permit adequate coronary perfusion.
The heart was then removed and suspended through the cannula in a classic Langenhorff preparation. […]
Two pairs of electrodes (Monicron 2-O) were saturated on the LV: one at the tip, called proximal (P) and the other at the branching of front descending coronary artery branching with the first diagonal, called distal (D). […] The cardiac frequency was determined by measuring the interval between two consecutive electrograms and transformed into beats per minute (bpm). […]

Compound	reversal of sustained ventricular fibrillation (in words) (isolated rabbit heart [1])	prevention of re-induction of ventricular fibrillation by electric stimulus (isolated rabbit heart [2])
CCCCc1oc2ccccc2c1C(=O)c1cc(I)c(OCCN(CC)CC)c(I)c1 [amiodarone]	do not have any effect	
CCN(CC)CC(=O)Nc1c(C)cccc1C [lidocain]		does not prevent the reinduction
CC(C)NCC(O)COc1cccc2ccccc12 (stereo not drawn) [propranolol]	do not have any effect	
